According to patent US20240315990A1, “Adelmidrol For Use In Diseases Characterized By Insufficient Agonism Of PPAR-GAMMA Receptor” (Epitech Group S.P.A., priority 2016, published 2024):
Entries after “also recorded” stand apart in the source; their conditions may differ.

Assays:
[1] = system: MIA-induced articular cartilage erosion; assay: monosodium iodoacetate (MIA)-induced articular lesion, cartilage erosion by stereomicroscope; assay type: in vivo; conditions: Adelmidrol 150 μg/25 μL i.a.
Description: FIG. 1A. Images obtained by a stereomicroscope on the state of erosion of the interposed cartilage in the right knee of each experimental group: control, MIA, Adelmidrol 150 μg/25 μL i.a. The analysis was performed 21 days after the induction of the disease.
FIG. 1B. Effect of the treatment with Adelmidrol 150 μg/25 μL i.a. on the erosive lesion of the interposed cartilage upon injection of MIA, compared to MIA and control groups treated with the solvent;
A microscopic analysis of the lesion related to the articular cartilage was performed by comparing the erosive lesion of the articular cartilage between the following groups: animals not treated with MIA, animals treated with MIA+solvent, and animals treated with MIA+solvent added with Adelmidrol. […] In the image corresponding to the animal damaged through MIA, an extensive cartilage erosion is apparent, which also allows to distinguish the subchondral bone, unlike the animal control whose joint is in excellent condition. […] Each image was given a score from 0 to 4 (0=normal; 4=maximum degree of injury severity) expressing the articular cartilage lesion in terms of increasing severity (Janusz M J et al. Ostearthritis and Cartilage 2001; 9:751-760), as described by Guingamp et al. (Guingamp C. et al. Arthritis & Rheumatism 1997; Vol 40 No 9:1670-1679).

[2] = system: carrageenan-induced edema in PPAR-α-WT and KO mice; assay: carrageenan-induced edema in PPAR-alpha knock-out mice; assay type: in vivo; conditions: Adelmidrol 10 mg/kg i.p.; for edema as a percentage with respect to the edema produced by carrageenan alone: PPAR-α-WT and KO mice
Description: In order to verify a possible involvement of PPAR-alpha receptor, the edema induced by carrageenan in the manners described above was carried out on PPAR-alpha knock-out mice (PPAR-α-WT and KO).
PPAR-α-WT and KO mice (10 animals per group) were divided into the following experimental groups: • CAR+physiological solution; • CAR+Adelmidrol (10 mg/kg); Adelmidrol was administered i.p. when injecting CAR.

PPAR-gamma receptor = molecular target: T1, PPAR-gamma receptor (Rattus norvegicus, UniProt O88275); assay: carrageenan-induced rat paw edema with PPAR-gamma antagonist GW9662, residence time of the paw on the hot plate; assay type: in vivo
T1 construct: from tissue; host or cells: live rat (in vivo, paw edema model)
T1 sequence (O88275 1-505): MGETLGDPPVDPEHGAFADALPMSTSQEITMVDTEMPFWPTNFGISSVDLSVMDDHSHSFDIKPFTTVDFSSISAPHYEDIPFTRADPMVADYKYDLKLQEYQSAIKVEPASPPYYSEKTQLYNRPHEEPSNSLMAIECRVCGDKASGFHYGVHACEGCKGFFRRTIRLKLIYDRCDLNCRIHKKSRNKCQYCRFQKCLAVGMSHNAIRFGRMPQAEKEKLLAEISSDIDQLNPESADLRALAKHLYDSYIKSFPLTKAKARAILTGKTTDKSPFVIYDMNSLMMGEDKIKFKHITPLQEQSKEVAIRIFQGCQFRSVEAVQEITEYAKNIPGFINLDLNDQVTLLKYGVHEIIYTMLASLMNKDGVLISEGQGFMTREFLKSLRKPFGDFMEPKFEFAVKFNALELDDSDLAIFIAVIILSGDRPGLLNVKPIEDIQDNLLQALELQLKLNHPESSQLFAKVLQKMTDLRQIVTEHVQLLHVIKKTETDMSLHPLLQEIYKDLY
Description: The experimental model of carrageenan-induced rat paw edema is as shown above. In this experiment, the effect was assessed by measuring the residence time of the animal's paw on the hot plate, thus obtaining percentage data with respect to the control treated with carrageenan alone.
The rats (10 animals per group) were divided into the following experimental groups: • CAR+physiological solution; • CAR+GW9662 (1 mg/kg)+Adelmidrol (10 mg/kg); GW9662 was administered i.p. 30 min before injecting CAR and Adelmidrol (i.p.) when injecting CAR; • CAR+Adelmidrol (10 mg/kg); Adelmidrol was administered i.p. when injecting CAR.

[3] = bleomycin-induced lung lesion, weight change in the animals; assay type: in vivo, CD1 male mice; conditions: mice, bleomycin (BLM) + Adelmidrol vs BLM + inert vehicle
Description: CD1 male mice ((CD1(ICR) mice (25-35 g; Harlan Nossan, Italy) were accommodated in a controlled environment and fed with standard food and water.
Using a catheter (tracheotomy tube), the mice received a single intratracheal instillation of physiological solution (0.9%) or saline containing bleomycin sulfate (0.1 U/mouse) in a final volume of 100 μL, and the liquid was immediately followed by 300 μL of air in order to also ensure the distribution thereof in the distal airways.
All procedures related to the treatment of animals were performed in accordance with the guidelines approved by the Institutional Committee (IACUC) following the guidelines of the Association for Assessment and Accreditation of Laboratory Animal Care (AAALAC). While being monitored, the animals were inspected for any adverse effects produced by the lung lesion. An assessment of the water and food consumption and consequently of the body weight (analyzed daily by weighing the animals) was carried out (Mullane K M et al, 1985, supra).
The animals belonging to the group treated with bleomycin (BLM)+inert vehicle and those belonging to that treated with BLM and Adelmidrol in an inert vehicle were weighed, and the weight change was calculated on the 3rd and 8th day after the start of the treatment with BLM. The results are shown in the chart in FIG. 5.

O=C(CCCCCCCC(=O)NCCO)NCCO [Adelmidrol, azelaic acid diethanolamide]
cartilage erosion of the tibial plateau, stereomicroscope image (FIG. 1A) ([1]; 21 days after induction with MIA): clear protection against cartilage erosion | cartilage erosion, quantitative analysis of score 0 to 4 (FIG. 1B) ([1]; compared to MIA + solvent): noticeably slow down the cartilage erosion in a statistically significant manner | protective action on carrageenan-induced edema in the absence of the PPAR-alpha receptor ([2]; PPAR-alpha knock-out mice): did not alter the protective action of Adelmidrol; also recorded: shows activity on the carrageenan-induced edema in mice genetically lacking the PPAR-alpha receptor | edema as a percentage with respect to the edema produced by carrageenan alone ([2]; 0 min.): 102.4 percentage | edema as a percentage with respect to the edema produced by carrageenan alone ([2]; 30 min): 81.9 percentage | edema as a percentage with respect to the edema produced by carrageenan alone ([2]; 1 hr): 69.2 percentage | edema as a percentage with respect to the edema produced by carrageenan alone ([2]; 2 hr): 63.9 percentage | edema as a percentage with respect to the edema produced by carrageenan alone ([2]; 3 hr): 55.6 percentage | edema as a percentage with respect to the edema produced by carrageenan alone ([2]; 4 hr): 51.4 percentage | edema as a percentage with respect to the edema produced by carrageenan alone ([2]; 5 hr): 50.3 percentage | residence time of the paw on the hot plate, percentage with respect to the control treated with carrageenan alone (PPAR-gamma receptor; Adelmidrol 10 mg/kg ip alone, 0 min.): 107.4 percentage | residence time of the paw on the hot plate, percentage with respect to the control treated with carrageenan alone (PPAR-gamma receptor; Adelmidrol 10 mg/kg ip alone, 30 min): 98.5 percentage | residence time of the paw on the hot plate, percentage with respect to the control treated with carrageenan alone (PPAR-gamma receptor; Adelmidrol 10 mg/kg ip alone, 1 hr): 123.2 percentage | residence time of the paw on the hot plate, percentage with respect to the control treated with carrageenan alone (PPAR-gamma receptor; Adelmidrol 10 mg/kg ip alone, 2 hr): 134.2 percentage | residence time of the paw on the hot plate, percentage with respect to the control treated with carrageenan alone (PPAR-gamma receptor; Adelmidrol 10 mg/kg ip alone, 3 hr): 146.8 percentage | residence time of the paw on the hot plate, percentage with respect to the control treated with carrageenan alone (PPAR-gamma receptor; Adelmidrol 10 mg/kg ip alone, 4 hr): 197.7 percentage | residence time of the paw on the hot plate, percentage with respect to the control treated with carrageenan alone (PPAR-gamma receptor; Adelmidrol 10 mg/kg ip alone, 5 hr): 175.0 percentage | residence time of the paw on the hot plate, percentage with respect to the control treated with carrageenan alone (PPAR-gamma receptor; GW9662 1 mg/kg i.p. 30 min before CAR + Adelmidrol 10 mg/kg i.p., 0 min.): 105.2 percentage | residence time of the paw on the hot plate, percentage with respect to the control treated with carrageenan alone (PPAR-gamma receptor; GW9662 1 mg/kg i.p. 30 min before CAR + Adelmidrol 10 mg/kg i.p., 30 min): 96.2 percentage | residence time of the paw on the hot plate, percentage with respect to the control treated with carrageenan alone (PPAR-gamma receptor; GW9662 1 mg/kg i.p. 30 min before CAR + Adelmidrol 10 mg/kg i.p., 1 hr): 102.4 percentage | residence time of the paw on the hot plate, percentage with respect to the control treated with carrageenan alone (PPAR-gamma receptor; GW9662 1 mg/kg i.p. 30 min before CAR + Adelmidrol 10 mg/kg i.p., 2 hr): 104.1 percentage | residence time of the paw on the hot plate, percentage with respect to the control treated with carrageenan alone (PPAR-gamma receptor; GW9662 1 mg/kg i.p. 30 min before CAR + Adelmidrol 10 mg/kg i.p., 3 hr): 111.3 percentage | residence time of the paw on the hot plate, percentage with respect to the control treated with carrageenan alone (PPAR-gamma receptor; GW9662 1 mg/kg i.p. 30 min before CAR + Adelmidrol 10 mg/kg i.p., 4 hr): 114.1 percentage | residence time of the paw on the hot plate, percentage with respect to the control treated with carrageenan alone (PPAR-gamma receptor; GW9662 1 mg/kg i.p. 30 min before CAR + Adelmidrol 10 mg/kg i.p., 5 hr): 112.5 percentage | body weight change on the 3rd and 8th day after start of BLM (FIG. 5) [3]: significant body weight gain
